Reference: patent US6479474B2, “Dietary calcium as a supplement to vitamin D compound treatment of multiple sclerosis” (Wisconsin Alumni Research Foundation, priority 1999, dated 2002)

Columns and labels:
IFN-γ = conditions: in vivo treatments, literature (Cantorna 1998b); cited from earlier work
[1] = Body weight at end of the 50 d experiment; format: in vivo; conditions: male mice, end of 50 d experiment, mean ± SD
Description: (§1) Animals and Diets. The B10.PL mice were produced in our colony using breeding pairs obtained from Jackson Laboratories (Bar Harbor, Me.). During breeding, the mice were fed Purina diet 5008 Formilab (Richmond, Ind.), containing 100 IU/g of cholecalciferol (vitamin D3). Mice were used for experiments at 6-8 wk of age at which time the females were 18-22 g and the males were 22-26 g. For experiments, all of the mice were fed synthetic diets (Yang, et al., 1993; Smith, et al., 1987) with the modifications described below. For all experiments each mouse was fed 4 g of the experimental diet (completely eaten) and the diets were replaced every 2-3 days for the duration of each experiment. […] Although the experimental diet was devoid of vitamin D, the mice were exposed to normal light and, therefore, were not vitamin D deficient. EAE was induced in all mice one week after the experimental diets were started. For mice with severe symptoms of EAE, food was placed in small dishes on the bottom of the cage. At the end of the experiments, mice were weighed, killed, and bled.

[2] = Serum calcium by atomic absorption spectrometry; format: in vivo, mice; conditions: high dietary calcium, at EAE-preventing doses (6 ng/d females, 100 ng/d males)
Experimental: Serum calcium and 1,25-(OH)2D3 analysis. After 50 days the mice were killed, blood was collected by heart puncture and serum was collected following clot formation. Serum calcium concentrations were determined using a Perkin Elmer atomic absorption spectrometer exactly as described (Mohamed, et al., 1995). 1,25-(OH)2D3 analysis was done exactly as described (Arbour, et al., 1996).

[3] = system: experimental autoimmune encephalomyelitis (EAE) in B10.PL mice; conditions: literature (Cantorna 1996; Lemire and Archer 1991); cited from earlier work
[4] = system: lymphocytes in the draining LN; conditions: in vivo treatments, literature (Cantorna 1998b); cited from earlier work
TNF-α = conditions: in vivo treatments, literature (Cantorna 1998b); cited from earlier work
[5] = system: experimental autoimmune encephalomyelitis (EAE) in B10.PL mice; assay: EAE induction in B10.PL mice fed 1,25-(OH)2D3 and various dietary calcium: EAE incidence and prevention; format: in vivo; conditions: for prevention of EAE: 20 mg calcium/100 g diet (low); for incidence of EAE: 20 mg calcium/100 g diet, lower doses that do not raise serum calcium; for times more 1,25-(OH)2D3 needed to prevent EAE in males than females: males vs females
Description: as §1
In the first experimental design, male and female mice were fed diets which contained 1 g calcium/100 g diet and EAE was induced. In a second series of experiments groups of 8-12 mice were fed the experimental diet (control treatment) without vitamin D or the experimental diet plus various concentrations of 1,25-(OH)2D3 as indicated. Females were fed 1,25-(OH)2D3 ranging from 0 to 200 ng/d and the males were fed 0 to 800 ng/d. The experimental diet contained one of 3 calcium concentrations; 20 mg (low), 470 mg (medium) or 1 g (high) calcium/100 g diet as indicated. The final experimental design used only male which were fed the control diet or the same diet containing 100 ng 1,25-(OH)2D3/daily. These mice were fed diets, which contained low, medium, or high calcium as indicated. […] All of the procedures described were reviewed and approved by the University of Wisconsin-Madison Research Animal Resources Center Committee Review Board on Sep. 9, 1994 and the protocol number is A-07-3000-A00755-4-08-94.
EAE disease induction. Myelin basic protein (MBP) was isolated from guinea pig spinal cords (Cantorna, et al., 1996). MBP was lyophilized and stored at −20° C. For immunizations, MBP was dissolved in 0.1 mol/L acetic acid at a concentration of 8 g/L (Cantorna, et al., 1996). Ether anesthetized mice were immunized subcutaneously with 0.1 ml of MBP ([…]) emulsified in an equal volume of Complete Freund's Adjuvant (CFA, Difco Laboratories, Detroit, Mich.) containing Mycobacterium tuberculosis H37 Ra. In addition, on the day of immunization and two days later mice were injected i.p. with 200 ng of pertussis toxin (LIST Biological Laboratories, Campbell, Calif.) suspended in sterile saline. […] Male mice were killed on d 21 post-immunization to measure various immune responses. The EAE scoring system was: 0=normal; 1=limp tail; 2=paraparesis with a clumsy gait; 3=hind limb paralysis; 4=hind and fore limb paralysis; 5=moribund.

transplant rejection = conditions: literature (Bouillon 1995; Hullett 1998); cited from earlier work
[6] = system: lymphocytes in the draining LN; assay: Total cell numbers in the draining lymph nodes of mice with EAE; format: in vivo; conditions: male mice with EAE, 100 ng daily, d 21 post-immunization
Experimental: (§2) Lymphocytes. Axillary, brachial and inguinal lymph nodes (LN) from 6 mice were collected and pooled from control and 1,25-(OH)2D3 treated mice on d 21 post-immunization. Each experiment was repeated 3 times in its entirety. These LNs were chosen because they drained the site of immunization. Collected LN were disrupted manually using a 23 g needle and a pair of forceps. Total cell numbers in the LN were determined by counting the number of lymphocytes from control- and 1,25-(OH)2D3 treated mice and dividing by the number of mice in the group. Flow cytometry of fluorescent-labeled cell populations (Thy-1, class II, CD4 and CD8) were done on LN cells from control- and 1,25-(OH)2D3-treated mice using standard protocols and exactly as described (Smith, et al., 1987). For cytokine PCR analysis, LN cells were saved for total cellular RNA isolation.

TGF-β1 mRNA [7] = assay: TGF-β1 transcript analysis in LN by quantitative competitive PCR; format: in vivo; conditions: male mice with EAE, 100 ng daily, regardless of dietary calcium and number of cells in the LN
Experimental: (§3) Transcript analysis by quantitative competitive PCR. Cells for mRNA analysis were dissolved in acid guanidinium thiocyanate, and total RNA was isolated by the phenol chloroform extraction method (Chomczynski and Sacchi, 1987). Total cellular RNA was reverse-transcribed using oligo dT primers according to the manufacturer's protocols (Promega) and quantitated by competitive PCR. Primers and mimic DNA specific for glyceraldehyde-3-phosphate dehydrogenase (G3PDH), IL-4 and TGF-β1 were obtained from Clontech Laboratories, Inc. (Palo Alto, Calif.) (Siebert and Larrick, 1992; Siebert and Larrick, 1993). Competitive cDNA mimics which included the G3PDH, IL-4 and TGF-β1 primer sequences adjoining a neutral DNA segment, were serially diluted and added to test cDNA aliquots (Siebert and Larrick, 1992; Siebert and Larrick, 1993). The authentic product to mimic bp sizes were 983/600 for G3PDH, 306/544 for IL-4, and 525/390 for TGF-β1. The mixture was amplified under predetermined optimal conditions and the products were resolved by 1.5% agarose gel electrophoresis and ethidium bromide stained. […] The mimic DNA dilution that yielded a band with a fluorescence intensity that matched the cytokine band was used to calculate cytokine cDNA copy number. The G3PDH transcript quantitation served as a control for reverse transcription efficiency. […]

IL-4 mRNA [8] = assay: IL-4 transcript analysis in LN by quantitative competitive PCR; format: in vivo; conditions: male mice with EAE, 100 ng daily
Experimental: as §3

TGF-β1 mRNA [9] = conditions: in vivo treatments, literature (Cantorna 1998b); cited from earlier work
IL-4 mRNA [10] = conditions: in vivo treatments, literature (Cantorna 1998b); cited from earlier work
LN cells = assay: Flow cytometry of LN cell populations (Thy-1, CD4, CD8); format: in vivo, mice; conditions: regardless of dietary calcium or 1,25-(OH)2D3 treatment
Experimental: as §2

G3PDH mRNA = assay: G3PDH transcript analysis in LN by quantitative competitive PCR; format: in vivo; conditions: LN of male mice with EAE, 100 ng daily
Experimental: as §3

experimental arthritis = conditions: literature (Cantorna 1998a); cited from earlier work

Structure (SMILES): C=C1/C(=C\C=C2/CCC[C@]3(C)[C@@H]([C@H](C)CCCC(C)(C)O)CC[C@@H]23)C[C@@H](O)C[C@@H]1O [1,25-(OH)2D3, 1α,25-dihydroxyvitamin D3]
- IFN-γ expression (IFN-γ): no effect
- Weight ([1]; dietary calcium 20 mg/100 g, high dose 800 ng/day): 13 ± 3 g
- Weight ([1]; dietary calcium 20 mg/100 g, intermediate dose 40-500 ng/d): 27 ± 2 g
- Weight ([1]; dietary calcium 470 mg/100 g, high dose 400 ng/day): 17 ± 3 g
- Weight ([1]; dietary calcium 470 mg/100 g, intermediate dose 50-200 ng/d): 23 ± 2 g
- Weight ([1]; dietary calcium 1 g/100 g, high dose 100-400 ng/day): 15 ± 1 g
- Weight ([1]; dietary calcium 1 g/100 g, intermediate dose 10-50 ng/d): 25 ± 2 g
- serum calcium [2]: elevated
- development of EAE [3]: prevent the development of EAE
- total number of lymphocytes [4]: net loss
- TNF-α expression (TNF-α): no effect
- reduction of the incidence of EAE ([5]; calcium removed from the diet): 50%
- effectiveness in preventing EAE ([5]; diet containing high calcium, appropriate doses): 100%
- prevention of EAE ([5]; females, at 200 ng/d): never completely prevented
- incidence of EAE ([5]; females): 45%
- dose at which EAE was completely prevented ([5]; females, 470 mg calcium/100 g diet (medium)): 200 ng/day
- dose at which EAE was completely prevented ([5]; females, 1 g calcium/100 g diet (high)): 6 ng/day
- drop in EAE incidence compared to mice not treated ([5]; low calcium diets, males and females): 40-45%
- times more 1,25-(OH)2D3 needed to prevent EAE in males than females ([5]; high calcium intakes): 17 times
- times more 1,25-(OH)2D3 needed to prevent EAE in males than females ([5]; overall): at least 4 times
- prevention of EAE ([5]; males, at 800 ng/d): never completely prevented
- incidence of EAE ([5]; males): 30%
- dose at which EAE was completely prevented ([5]; males, 470 mg calcium/100 g diet (medium)): 400 ng/day
- dose at which EAE was completely prevented ([5]; males, 1 g calcium/100 g diet (high)): 100 ng/day
- overall symptoms of EAE (day of onset, paralysis scores) ([5]; treated mice, as the incidence dropped (data not shown)): decreased
- transplant rejection (transplant rejection): markedly inhibit transplant rejection
- total number of cells in the LN ([6]; low calcium diets): the same as controls
- total number of cells in the LN ([6]; with addition of calcium to the diet): decreased dramatically
- TGF-β1 mRNA expression in LN (TGF-β1 mRNA [7]): high levels of TGF-β1
- IL4 production (mRNA in LN) (IL-4 mRNA [8]; low calcium diets): not different from controls
- amount of IL-4 produced (mRNA in LN) (IL-4 mRNA [8]; medium to high calcium diets): increased as the calcium in the diet increased
- expression of TGF-β1 (TGF-β1 mRNA [9]): net increase
- expression of IL-4 (IL-4 mRNA [10]): net increase
- CD4+ cells (LN cells): 40-44 % of the LN
- CD8+ cells (LN cells): 18-21 % of the LN
- Thy-1 positive cells (LN cells): 52-57 % of the LN
- G3PDH mRNA expression (G3PDH mRNA): no effect
- development of experimental arthritis (experimental arthritis): prevent
